Assay results taken from patent publication US20110046107A1, “SULFONYL-SUBSTITUTED CARBAPENEM COMPOUNDS” (priority 2007, published 2011).
Values after ≈ are worked out from the molar mass of the structure shown. Like-named read-outs stand apart in the source and are kept apart here.

Columns and labels:
[1] = test system: Citrobacter freundii; assay: In vitro antibacterial activity, agar dilution method (clinical isolates); type: cell-based; details: clinically isolated strains, Gram-negative
Description: (§1) Bacterial strains for test: All the bacterial strains are clinical isolates and purchased from public organizations. methicillin-sensitive staphylococcus aureus (MS SA), methicillin-resistant staphylococcus aureus (MRSA), methicillin-sensitive staphylococcus epidermidis (MSSE), methicillin-resistant staphylococcus epidermidis (MRSE), streptococcus pyogenes, penicillin-sensitive streptococcus pneumoniae (PSSP), penicillin-resistant streptococcus pneumoniae (PRSP), Escherichia coli, Citrobacter freundii, Enterobacter cloacae, Hemophilus influenza, Klebsiella pneumonia (producing ESBL), Morganella morganii, Proteus mirabilis, Serratia marcescens, and Pseudomonas aeruginosa.
(§2) Drugs to be tested: compounds of the invention prepared in the examples; the chemical names, structural formulae, preparation materials, and preparation methods are provided in the preparation examples of the compounds;
(§3) Meropenem (Meropenem for injection), Ertapenem (Ertapenem for injection), and Doripenem (Doripenem for injection) commercially available
(§4) Experimental method: the agar dilution method, by reference to Methodology of Pharmacological Experiment (XU Shuyun et al, published by the Peoples Medical Publishing House, 1st Edition, August, 1982; 3rd Edition, 5th printing, January 2002, p 1659-1660).

[2] = test system: methicillin-sensitive staphylococcus aureus (MSSA); assay: as above; type: cell-based; details: read-out: MIC90 S. aureus MSSA
Description: as §1, §2, §3, §4

[3] = test system: Proteus mirabilis; assay: as above; type: cell-based; details: clinically isolated strains, Gram-negative, agar dilution, read-out: MIC90 Proteus mirabilis
Description: as §1, §2, §3, §4

[4] = test system: methicillin-resistant staphylococcus epidermidis (MRSE); assay: as above; type: cell-based; details: clinically isolated strains, Gram-positive, read-out: MIC90 S. epidermidis MRSE
Description: as §1, §2, §3, §4

[5] = test system: Enterobacter cloacae; assay: as above; type: cell-based; details: read-out: MIC90 Enterobacter cloacae
Description: as §1, §2, §3, §4

[6] = test system: Pseudomonas aeruginosa; assay: as above; type: cell-based; details: clinically isolated strains, Gram-negative
Description: as §1, §2, §3, §4

[7] = test system: streptococcus pyogenes; assay: as above; type: cell-based; details: clinically isolated strains, Gram-positive, read-out: MIC90 S. pyogenes
Description: as §1, §2, §3, §4

[8] = test system: Serratia marcescens; assay: as above; type: cell-based; details: read-out: MIC90 Serratia marcescens
Description: as §1, §2, §3, §4

[9] = test system: Klebsiella pneumonia (producing ESBL); assay: as above; type: cell-based; details: Klebsiella pneumoniae; clinically isolated strains (producing ESBL), Gram-negative, agar dilution; read-out: MIC90 Klebsiella pneumonia
Description: as §1, §2, §3, §4

[10] = test system: penicillin-sensitive streptococcus pneumoniae (PSSP); assay: as above; type: cell-based; details: clinically isolated strains, Gram-positive, read-out: MIC90 S. pneumoniae PSSP
Description: as §1, §2, §3, §4

[11] = test system: Hemophilus influenza; assay: as above; type: cell-based; details: read-out: MIC90 Hemophilus influenza
Description: as §1, §2, §3, §4

[12] = test system: penicillin-resistant streptococcus pneumoniae (PRSP); assay: as above; type: cell-based; details: clinically isolated strains, Gram-positive, read-out: MIC90 S. pneumoniae PRSP
Description: as §1, §2, §3, §4

[13] = test system: Escherichia coli; assay: as above; type: cell-based; details: clinically isolated strains, Gram-negative, read-out: MIC90 E. coli
Description: as §1, §2, §3, §4

[14] = test system: Morganella morganii; assay: as above; type: cell-based; details: clinically isolated strains, Gram-negative
Description: as §1, §2, §3, §4

[15] = test system: methicillin-resistant staphylococcus aureus (MRSA); assay: as above; type: cell-based; details: clinically isolated strains, Gram-positive, read-out: MIC90 S. aureus MRSA
Description: as §1, §2, §3, §4

[16] = test system: methicillin-sensitive staphylococcus epidermidis (MSSE); assay: as above; type: cell-based; details: read-out: MIC90 S. epidermidis MSSE
Description: as §1, §2, §3, §4

[17] = Pharmacokinetic study of the compounds in SD rat (intravenous injection); type: in vivo, SD male rats; details: SD male rats, intravenous injection 10 mg/kg, plasma, X ± SD, n = 3, read-out: t1/2 (half lives) (converted)
Procedure: Test drugs: the compound 1, 6, 8 and 9 prepared in the examples
Control drugs: Meropenem (Meropenem for injection), commercially available; Doripenem (Doripenem for Injection).
Internal standard substance: Warfarin, a white powder, purity 99%, batch number: 0072-8501, provided by Shanghai Institute for Drug Control.
Drug formulation: the test drugs were formulated before use by being dissolved in physiological saline to make a final concentration of 5 mg/mL for intravenous injection.
Test animal: SD male rats, weight: 200˜250 g, purchased from SHANGHAI SLAC LABORATORY ANIMAL CO. LTD.
Drug administration: The SD male rats were randomly divided into five groups with 3 in each group, and given the drugs by intravenous injection at a dose of 10 mg/kg. The animals were weighed before administration.
Collection of Samples: Zero time was marked before administration; 0.5 mL of blood was respectively sampled from orbit venous plexus at 5 min, 15 min, 30 min, 45 min, 1 h, 2 h, 4 h, 6 h, 8 h, 24 h after administration into heparinized centrifuge tubes. The samples were centrifuged for 6 minutes at 8000 rpm and the supernatant plasma was separated. The plasma was frozen at −20° C. for LC-MS/MS analysis.
Chromatographic conditions: column: Gemini C6-Phenyl (50 mm×4.6 mm, 5 μm); mobile phase: 0.1% of formic acid-water-acetonitrile (5:35:60, v/v/v); flow rate: 1 mL/min; column temperature: 35-40° C.; injection volume: 5 μL; split ratio: 1/5.
Mass spectrometer conditions: scanning mode: cation multiple reactions monitoring (MRM); ion source: electrospray ionization (ESI); Nebulize gas: 8 L/min; Curtain gas: 8 L/min; Collision gas: 4 L/min; Ionspray voltage: 4500 v; Temperature: 400° C./500° C.
Preparation of the Standard Curve and Quality-Control Sample: a Suitable Amount of the test drug was weighed precisely and then formulated into a stock solution (2.6 mg/mL) with ultrapure water. The stock solution was diluted with methanol to obtain a series of working solutions in a concentration of 25000, 5000, 2500, 500, 250 and 50 ng/mL, respectively. 100 μL of plasma samples were separately added into 20 μL of said working solutions to obtain the calibration solutions in a concentration of 5000, 1000, 500, 100, 50 and 10 ng/mL. By the same method, the quality-controlled sample solutions in a concentration of 4000, 800 and 20 ng/mL can be prepared. A standard curve was obtained by chromatographic analysis of the samples.
Sample preparation: 20 μL of acetonitrile and 200 μL (200 ng/mL) of Warfarin in acetonitrile were added into 100 μL of plasma sample, then spun for 1 minute and centrifuged for 5 minutes at 15000 rpm. 100 μL of the supernatant was taken, where 3 μL aliquot of the supernatant was used for the LC/MS/MS analysis.
Dosing concentration: The accuracy of the drug concentration in dosing solution for intravenous injection was 103.2%, determined by analysis of the formulated drugs using HPLC and comparison with the standards.
Data analysis: The drug concentration in plasma would be considered as zero if under the detection limit (10 ng/mL). The pharmacokinetics parameters were calculated by the non-compartment model using Winnonlin Professional 5.2 pharmacokinetics software.
Pharmacokinetics: The pharmacokinetics parameters and drug concentration-time curve were obtained by measuring the plasma drug concentration at different time points.

[18] = cited from earlier work
[19] = clinically isolated strains, Gram-negative, agar dilution
[20] = clinically isolated strains, Gram-positive, agar dilution

| SMILES | MIC90 [1] [µg/mL] | MIC90 [3] [µg/mL] | MIC90 [4] [µg/mL] | MIC90 [6] [µg/mL] | MIC90 [7] [µg/mL] | MIC90 [9] [µg/mL] | MIC90 [10] [µg/mL] | MIC90 [11, 19] [µg/mL] | MIC90 [12] [µg/mL] | MIC90 [13] [µg/mL] | MIC90 [14] [µg/mL] | MIC90 [15] [µg/mL] | half-life ([17]; in vivo) [min] | MIC90 [2, 20] [µg/mL] | MIC90 [5, 19] [µg/mL] | MIC90 [8, 19] [µg/mL] | MIC90 [16, 20] [µg/mL] | also measured |
| --- | --- | --- | --- | --- | --- | --- | --- | --- | --- | --- | --- | --- | --- | --- | --- | --- | --- | --- |
| CCCCN(CCCC)S(=O)(=O)N1CC(SC2=C(C(=O)O)N3C(=O)[C@H]([C@@H](C)O)[C@H]3[C@H]2C)C1 [Compound 8, (4R,5S,6S)-3-[1-(N,N-dibutylaminosulfonyl)-azetidin-3-yl]thio-6-[(1R)-1-hydroxyethyl]-4-methyl-7-oxo-1-aza-bicyclo-[3.2.0]hept-2-ene-2-carboxylic acid] | 0.016 (≈ 0.0327 µM) | 0.063 (≈ 0.129 µM) | 8 (≈ 16.3 µM) | 8 (≈ 16.3 µM) | 0.004 (≈ 0.00817 µM) | 0.032 (≈ 0.0654 µM) | 0.004 (≈ 0.00817 µM) | 0.125 (≈ 0.255 µM) | 1 (≈ 2.04 µM) | 0.016 (≈ 0.0327 µM) | 0.032 (≈ 0.0654 µM) | 8 (≈ 16.3 µM) | 16.2 ± 1.8 |  |  |  |  | MIC90 [2]: 0.125 µg/mL (≈ 0.255 µM); MIC90 [5]: 0.125 µg/mL (≈ 0.255 µM); MIC90 [8]: 0.125 µg/mL (≈ 0.255 µM); MIC90 [16]: 0.125 µg/mL (≈ 0.255 µM) |
| C[C@@H](O)[C@H]1C(=O)N2C(C(=O)O)=C(SC3CN(S(N)(=O)=O)C3)[C@H](C)[C@H]12 [Compound 1, (4R,5S,6S)-3-[N-aminosulfonyl-azetidin-3-yl]thio-6-[(1R)-1-hydroxyethyl]-4-methyl-7-oxo-1-aza-bicyclo-[3.2.0]hept-2-ene-2-carboxylic acid] | 0.016 (≈ 0.0424 µM) | 0.63 (≈ 1.67 µM) | 4 (≈ 10.6 µM) | 4 (≈ 10.6 µM) | 0.004 (≈ 0.0106 µM) | 0.032 (≈ 0.0848 µM) | 0.008 (≈ 0.0212 µM) |  | 0.5 (≈ 1.32 µM) | 0.008 (≈ 0.0212 µM) | 0.032 (≈ 0.0848 µM) | 4 (≈ 10.6 µM) | 19.2 ± 1.2 | 0.032 (≈ 0.0848 µM) | 0.063 (≈ 0.167 µM) | 0.063 (≈ 0.167 µM) | 0.063 (≈ 0.167 µM) | MIC90 [11]: 0.063 µg/mL (≈ 0.167 µM) |
| C[C@@H](O)[C@H]1C(=O)N2C(C(=O)O)=C(S[C@@H]3CN[C@H](C(=O)N(C)C)C3)[C@H](C)[C@H]12 [meropenem, Meropenem, reference compound] | 0.063 (≈ 0.164 µM) | 0.125 (≈ 0.326 µM) | 32 (≈ 83.4 µM) | 16 (≈ 41.7 µM) | 0.008 (≈ 0.0209 µM) | 0.5 (≈ 1.3 µM) | 0.016 (≈ 0.0417 µM) | 0.25 (≈ 0.652 µM) | 1 (≈ 2.61 µM) | 0.032 (≈ 0.0834 µM) | 0.063 (≈ 0.164 µM) | 64 (≈ 167 µM) |  | 0.25 (≈ 0.652 µM) | 1 (≈ 2.61 µM) | 0.125 (≈ 0.326 µM) | 0.25 (≈ 0.652 µM) | half-lives in human body [18]: about 1 h; half-life [17]: 7.2 ± 0.6 min |
| C[C@@H](O)[C@H]1C(=O)N2C(C(=O)O)=C(SC3CN(S(=O)(=O)N(C)C)C3)[C@H](C)[C@H]12 [Compound 6, (4R,5S,6S)-3-[1-(N,N-dimethylaminosulfonyl)-azetidin-3-yl]-thio-6-[(1R)-1-hydroxyethyl]-4-methyl-7-oxo-1-aza-bicyclo-[3.2.0]hept-2-ene-2-carboxylic acid] | 0.063 (≈ 0.155 µM) | 0.063 (≈ 0.155 µM) | 16 (≈ 39.5 µM) | 16 (≈ 39.5 µM) | 0.008 (≈ 0.0197 µM) | 0.125 (≈ 0.308 µM) | 0.004 (≈ 0.00986 µM) | 0.25 (≈ 0.617 µM) | 1 (≈ 2.47 µM) | 0.016 (≈ 0.0395 µM) | 0.063 (≈ 0.155 µM) | 8 (≈ 19.7 µM) | 18 ± 1.8 | 0.063 (≈ 0.155 µM) | 0.25 (≈ 0.617 µM) | 0.063 (≈ 0.155 µM) | 0.063 (≈ 0.155 µM) |  |
| C[C@@H](O)[C@H]1C(=O)N2C(C(=O)O)=C(SC3CN(S(=O)(=O)NCC(O)CN)C3)[C@H](C)[C@H]12 (stereo partly drawn) [Compound 9, (4R,5S,6S)-3-[1-(2-hydroxy-3-aminopropylaminosulfonyl)-azetidin-3-yl]thio-6-[(1R)-1-hydroxyethyl]-4-methyl-7-oxo-1-aza-bicyclo-[3.2.0]-hept-2-ene-2-carboxylic acid] |  |  |  |  |  |  |  |  |  |  |  |  | 19.2 ± 3.6 |  |  |  |  |  |
